These results are taken from patent publication US11274091B2 (Dizal (Jiangsu) Pharmaceutical Co., Ltd., priority 2018, dated 2022).

The target in experiment [1] is human TRPC3 ion channel (Homo sapiens (Human), UniProt Q13507). The experiment in a line: Inhibition of TRPC3 FLIPR Assay (membrane potential dye, OAG challenge). It is filed as cell-based. The note with it: TRPC3 transfected AD293 cells, OAG at EC80; most potent isolated isomer; mean of minimum 2 experiments. The text has this:
(§1) TRPC3 and TRPC6 channel opening causes an influx of predominantly calcium and sodium cations that result in a change in the electrical potential across the cell membrane. This change in membrane potential can be monitored using membrane potential dyes in the following FLIPR™ (Fluorescent Imaging Plate Reader) assays.
AD293 cells were transfected using the PLVX-puro lentivirus vector containing the coding sequence of the human TRPC3 ion channel. Puromycin-resistant cells were selected by treating with […] puromycin for two weeks. Monoclonal cells were obtained by limiting dilution and compared for their response to OAG in a membrane potential assay. The cells were grown in DMEM+10% fetal bovine serum (FBS)+1 μg/mL puromycin as culture medium.
TRPC3 cells were plated at 9K/well into 384-well polystyrene plates. Cells were grown for 24 h at 37° C. plus 5% CO2 after which media was aspirated using a Tecan plate washer and replaced with 40 μL of dye loading buffer (130 mM NaCl, 5 mM KCl, 0.15 mM CaCl2, 1 mM MgCl2, 20 mM HEPES ((4-(2-hydroxyethyl)-1-piperazineethanesulfonic acid)), 5 mM NaHCO3). For TRPC3 a final concentration of 0.5× membrane potential dye (Molecular Devices Membrane Blue, FLIPR Membrane Potential Assay Kit (bulk), Product #R8034(BLUE), Molecular Devices, Sunnyvale, Calif., 94089, USA) was used. Cells with membrane potential dye were then incubated for 30 mins at room temperature prior to beginning the experiments.
To test the effects of compounds on TRPC3 activity, compounds were first diluted in 100% DMSO to 3× the final concentration to be used in the experiments. Typical dose-response experiments ranged from 10 μM (top concentration) to 0.5 nM (lowest concentration). Ten microliters of 5× compound in 0.5% DMSO were added to 40 μL of cells incubated with membrane potential dye. Compound addition was performed on a FLIPRTetra or a FLIPR 384 (MDS Analytical Technologies). After a 400 second incubation with compound, 12.5 μL of OAG was added at 5× the EC80 (typical EC80 for TRPC3=2 μM final). The OAG challenge is designed to measure the inhibitory activity of compounds on receptor-operated TRPC3 activation.
(§2) All data was normalized to low controls (buffer alone) or high controls (OAG EC100). Data was analyzed using an XC50 curve fitting module and reported as pIC50 or IC50 values. The values are averaged to determine a mean value, for a minimum of 2 experiments.

Experiment [2] addresses human TRPC6 ion channel (Homo sapiens (Human), UniProt Q9Y210). The experiment in a line: Inhibition of TRPC6 FLIPR Assay (membrane potential dye, OAG challenge). The class given is cell-based. The following applies: TRPC6-HEK293 cells, OAG at EC80; most potent isolated isomer; mean of minimum 2 experiments.
Description: as §1
TRPC6-HEK293 was purchased from PerkinElmer (PerkinElmer, Product No.: AX-012-C), HEK293 cells were transfected using the pcDNA3.1(+)expression vector containing the coding sequence of the human TRPC6 ion channel. The coding sequence used is identical to coding sequence of GenBank NM_004621 with the exception of 2 synonym variations (t1683c and c2529t). The cells were grown in DMEM+10% fetal bovine serum (FBS) 0.5 mg/ml. Geneticin (ion channel expression selection) as culture medium.
TRPC6 cells were plated at 10K cells/well into 384-well polystyrene plates and then grown for 24 hs at 37° C. plus 5% CO2. After this time the media was aspirated using a Tecan plate washer and then replaced with 40 μL of dye loading buffer (130 mM NaCl, 5 mM KCl, 0.15 mM CaCl2, 1 mM MgCl2, 20 mM HEPES ((4-(2-hydroxyethyl)-1-piperazineethanesulfonic acid)), 5 mM NaHCO3). For TRPC6, a final concentration of 0.5× is used. Cells with membrane potential dye were then incubated for 30 mins at room temperature prior to beginning the experiments.
To test the effects of compounds on TRPC6 activity, compounds were first diluted in 100% DMSO to 3× the final concentration to be used in the experiments. Typical dose-response experiments ranged from 10 μM (top concentration) to 0.5 nM (lowest concentration). Ten microliters of […] compound in 0.5% DMSO were added to 40 μL of cells incubated with membrane potential dye. Compound addition was performed on a FLIPRTetra or a FLIPR 384 (MDS Analytical Technologies, Molecular Devices, Sunnyvale, Calif., 94089, USA). After a 400 second incubation with compound, […] OAG (1-oleoyl-2-acetyl-sn-glycerol (OAG), Sigma, Gillingham, Dorset, SP8 4XT Cat #O6754-10 MG) was added at 5× the EC80 (typical EC80 for TRPC6=3 μM final). The OAG challenge is designed to measure the inhibitory activity of compounds on receptor-operated TRPC6 activation.
as §2

Where only a bound is given, the exact number is not on record here.

Chain of human TRPC6 ion channel (Q9Y210 whole entry): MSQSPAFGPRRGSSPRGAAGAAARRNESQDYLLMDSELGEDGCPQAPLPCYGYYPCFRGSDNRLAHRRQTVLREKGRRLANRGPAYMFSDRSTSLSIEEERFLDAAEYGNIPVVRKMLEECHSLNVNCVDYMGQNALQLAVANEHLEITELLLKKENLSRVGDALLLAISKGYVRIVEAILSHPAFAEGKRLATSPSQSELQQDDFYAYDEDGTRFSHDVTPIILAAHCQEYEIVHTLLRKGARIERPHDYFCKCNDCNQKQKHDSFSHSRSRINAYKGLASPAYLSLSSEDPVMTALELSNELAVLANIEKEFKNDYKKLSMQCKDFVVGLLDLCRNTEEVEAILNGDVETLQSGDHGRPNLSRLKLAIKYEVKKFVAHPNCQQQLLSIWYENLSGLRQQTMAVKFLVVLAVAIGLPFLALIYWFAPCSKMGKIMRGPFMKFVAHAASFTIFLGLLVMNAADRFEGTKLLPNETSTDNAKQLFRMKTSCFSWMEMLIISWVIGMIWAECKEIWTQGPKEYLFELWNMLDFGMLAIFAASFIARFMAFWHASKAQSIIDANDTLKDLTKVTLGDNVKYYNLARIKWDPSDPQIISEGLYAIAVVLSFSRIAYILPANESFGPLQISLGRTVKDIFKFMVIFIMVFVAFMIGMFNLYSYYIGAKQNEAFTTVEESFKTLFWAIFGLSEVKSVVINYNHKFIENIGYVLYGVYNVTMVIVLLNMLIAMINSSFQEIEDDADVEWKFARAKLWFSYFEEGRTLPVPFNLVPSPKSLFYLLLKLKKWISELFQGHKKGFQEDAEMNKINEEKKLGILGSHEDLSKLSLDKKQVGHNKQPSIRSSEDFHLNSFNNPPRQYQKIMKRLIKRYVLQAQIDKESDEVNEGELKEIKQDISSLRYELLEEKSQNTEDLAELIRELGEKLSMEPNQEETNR
Chain of human TRPC3 ion channel (Q13507 whole entry): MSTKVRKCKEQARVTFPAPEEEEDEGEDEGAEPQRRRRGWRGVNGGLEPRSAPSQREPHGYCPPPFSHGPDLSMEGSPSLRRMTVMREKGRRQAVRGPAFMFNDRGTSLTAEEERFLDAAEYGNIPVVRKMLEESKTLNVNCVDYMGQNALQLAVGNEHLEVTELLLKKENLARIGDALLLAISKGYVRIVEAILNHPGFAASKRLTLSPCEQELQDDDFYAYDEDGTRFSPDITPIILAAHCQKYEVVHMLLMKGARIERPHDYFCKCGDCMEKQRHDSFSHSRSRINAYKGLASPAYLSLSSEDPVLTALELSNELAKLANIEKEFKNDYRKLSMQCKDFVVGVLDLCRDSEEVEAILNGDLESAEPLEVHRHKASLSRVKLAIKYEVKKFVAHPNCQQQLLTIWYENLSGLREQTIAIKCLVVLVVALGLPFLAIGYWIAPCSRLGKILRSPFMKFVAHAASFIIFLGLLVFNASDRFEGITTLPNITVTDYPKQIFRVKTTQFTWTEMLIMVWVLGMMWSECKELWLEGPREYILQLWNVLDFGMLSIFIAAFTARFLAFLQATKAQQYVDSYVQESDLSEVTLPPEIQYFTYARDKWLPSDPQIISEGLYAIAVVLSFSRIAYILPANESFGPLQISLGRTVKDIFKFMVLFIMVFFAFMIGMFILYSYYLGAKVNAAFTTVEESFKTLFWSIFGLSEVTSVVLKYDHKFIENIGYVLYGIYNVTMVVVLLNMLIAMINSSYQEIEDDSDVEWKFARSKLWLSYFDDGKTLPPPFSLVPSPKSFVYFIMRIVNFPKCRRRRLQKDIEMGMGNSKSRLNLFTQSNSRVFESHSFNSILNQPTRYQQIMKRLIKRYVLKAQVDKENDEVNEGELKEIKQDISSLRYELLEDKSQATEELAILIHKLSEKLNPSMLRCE

With `N#Cc1ccc(OC2CC(c3ccc(F)cc3)CC2N2CCC[C@@H](N)C2)nc1` (single isomer, unassigned) [Example 26], the IC50 (in general, the concentration that gives 50% inhibition) in experiment [1] worked out at 25.5 nM; in experiment [2], 9.51 nM.
Regarding `NC1CCCN(C2CC(c3ccc(F)cc3)CC2n2nccn2)C1` (stereo not drawn) [Example 1, 1-[4-(4-fluorophenyl)-2-(triazol-2-yl)cyclopentyl]piperidin-3-amine], the IC50 in experiment [1] was 17.7 nM; in experiment [2], 3.37 nM.
With `N#Cc1cnn(C2CC(c3ccc(F)cc3)CC2N2CCCC(N)C2)c1` (stereo not drawn) [Example 2, 1-[2-(3-amino-1-piperidyl)-4-(4-fluorophenyl)cyclopentyl]pyrazole-4-carbonitrile], the IC50 in experiment [1] turned out to be 8.31 nM; in experiment [2] it was 7.97 nM.
The like results for `N#Cc1ccn(C2CC(c3ccc(F)cc3)CC2N2CCCC(N)C2)n1` (stereo not drawn) [Example 3, 1-[2-(3-amino-1-piperidyl)-4-(4-fluorophenyl)cyclopentyl]pyrazole-3-carbonitrile] were, in that order, 46.4 nM and < 19.9 nM.
With `N#Cc1ccn(C2CC(c3ccc(F)cc3)CC2N2CCCC(N)C2)c1` (stereo not drawn) [Example 4, 1-[2-(3-amino-1-piperidyl)-4-(4-fluorophenyl)cyclopentyl]pyrrole-3-carbonitrile], the IC50 is 5.39 nM in experiment [1] and 5.31 nM in experiment [2].
The like results for `N#Cc1cn(C2CC(c3ccc(F)cc3)CC2N2CCCC(N)C2)nn1` (stereo not drawn) [Example 5, 1-[2-(3-amino-1-piperidyl)-4-(4-fluorophenyl)cyclopentyl]triazole-4-carbonitrile] were, in that order, 4.28 nM and 3.78 nM.
As to `N#Cc1cnn(C2CC(c3ccc(F)cc3)CC2N2CC(N)CC(F)C2)c1` (stereo not drawn) [Example 6, 1-[2-(3-amino-5-fluoro-1-piperidyl)-4-(4-fluorophenyl)cyclopentyl]pyrazole-4-carbonitrile], the IC50 stood at 6.22 nM in experiment [1] and 4.06 nM in experiment [2].
The like results for `N#Cc1cnn(C2CC(c3ccc(F)cc3)CC2N2CCC(F)(F)C(N)C2)c1` (stereo not drawn) [Example 7, 1-[2-(3-amino-4,4-difluoro-1-piperidyl)-4-(4-fluorophenyl)cyclopentyl]pyrazole-4-carbonitrile] were, in that order, 17.5 nM and 16.2 nM.
As to `NC1CCCN(C2CC(c3ccc(F)cc3)CC2n2cccn2)C1` (stereo not drawn) [Example 8, 1-[4-(4-fluorophenyl)-2-pyrazol-1-yl-cyclopentyl]piperidin-3-amine], the IC50 in experiment [1] stood at 7.97 nM; in experiment [2] it was 2.8 nM.
On to `NC1CC(F)CN(C2CC(c3ccc(F)cc3)CC2n2cccn2)C1` (stereo not drawn) [Example 9, 5-fluoro-1-[4-(4-fluorophenyl)-2-pyrazol-1-yl-cyclopentyl]piperidin-3-amine], for which the values for the half-maximal inhibitory concentration (IC50) in experiment [1] and in experiment [2] were 6.64 nM and 3.4 nM, respectively.
Consider `N[C@@H]1C[C@@H](F)CN([C@@H]2C[C@H](c3ccc(F)cc3)C[C@H]2n2cncn2)C1` [Example 10, (3R,5R)-5-fluoro-1-[(1R,2R,4S)-4-(4-fluorophenyl)-2-(1,2,4-triazol-1-yl)cyclopentyl]piperidin-3-amine], for which the half-inhibitory concentration (IC50) was determined as 16 nM in experiment [1] and 29.8 nM in experiment [2].
On to `NC1CC(F)CN(C2CC(c3ccc(F)cc3)CC2n2ncnn2)C1` (stereo not drawn) [Example 11, 5-fluoro-1-[4-(4-fluorophenyl)-2-(tetrazol-2-yl)cyclopentyl]piperidin-3-amine], for which the IC50 in experiment [1] was determined as 4.03 nM; in experiment [2] it was 10.6 nM.
The like results for `NC1CCCN(C2CC(c3ccc(F)cc3)CC2n2ncnn2)C1` (stereo not drawn) [Example 12, 1-[4-(4-fluorophenyl)-2-(tetrazol-2-yl)cyclopentyl]piperidin-3-amine] were, in that order, 7.55 nM and 26.7 nM.
Turning to `N#Cc1ncn(C2CC(c3ccc(F)cc3)CC2N2CCCC(N)C2)n1` (stereo not drawn) [Example 13, 1-[2-(3-amino-1-piperidyl)-4-(4-fluorophenyl)cyclopentyl]-1,2,4-triazole-3-carbonitrile], the values for the IC50 in experiment [1] and in experiment [2] were 14.3 nM and 7.1 nM, respectively.
The like results for `N#Cc1ccc(OC2CC(c3ccc(F)c(O)c3)CC2N2CCCC(N)C2)cc1` (stereo not drawn) [Example 14, 4-[2-(3-amino-1-piperidyl)-4-(4-fluoro-3-hydroxy-phenyl)cyclopentoxy]benzonitrile] were, in that order, 58.8 nM and 17.4 nM.
As for `COc1cc(C2CC(Oc3ccc(C#N)cc3)C(N3CCCC(N)C3)C2)ccc1F` (stereo not drawn) [Example 15, 4-[2-(3-amino-1-piperidyl)-4-(4-fluoro-3-methoxy-phenyl)cyclopentoxy]benzonitrile], the IC50 in experiment [1] was 22.5 nM; in experiment [2], 9.51 nM.
`N#Cc1ccc(OC2CC(c3cccc(F)c3)CC2N2CCCC(N)C2)c(Cl)c1` (stereo not drawn) [Example 16, 4-[2-(3-amino-1-piperidyl)-4-(3-fluorophenyl)cyclopentoxy]-3-chloro-benzonitrile]: the IC50 in experiment [1] turned out to be 69.5 nM; in experiment [2] it was 19.3 nM.
Turning to `N#Cc1ccc(OC2CC(c3ccc(F)cc3)CC2N2CCC(F)(F)C(N)C2)cc1` (stereo not drawn) [Example 17, 4-[2-(3-amino-4,4-difluoro-1-piperidyl)-4-(4-fluorophenyl)cyclopentoxy]benzonitrile], the results for the IC50 in experiment [1] and in experiment [2] were 46.1 nM and 20.7 nM, respectively.
For the molecule `N#Cc1ccc(OC2CC(c3ccc(F)cc3)CC2N2CC(N)CC(F)(F)C2)cc1` (stereo not drawn) [Example 18, 4-[2-(5-amino-3,3-difluoro-1-piperidyl)-4-(4-fluorophenyl)cyclopentoxy]benzonitrile], the IC50 in experiment [1] turned out to be 42.5 nM; in experiment [2], 31.1 nM.
As for `N#Cc1ccc(OC2CC(c3ccc(F)cc3)CC2N2CCCC(N)C2)cc1F` (stereo not drawn) [Example 19, 4-[2-(3-amino-1-piperidyl)-4-(4-fluorophenyl)cyclopentoxy]-2-fluoro-benzonitrile], the results for the IC50 in experiment [1] and in experiment [2] were 64.5 nM and 25.1 nM, respectively.
Taken in the same sequence, the figures for `N#Cc1ccccc1OC1CC(c2ccccc2)CC1N1CCCC(N)C1` (stereo not drawn) [Example 20, 2-[2-(3-amino-1-piperidyl)-4-phenyl-cyclopentoxy]benzonitrile] were 38.8 nM and 14.1 nM.
Taken in the same sequence, the figures for `N#Cc1ccc(OC2CC(c3ccccc3)CC2N2CCCC(N)C2)c(Cl)c1` (stereo not drawn) [Example 21, 4-[2-(3-amino-1-piperidyl)-4-phenyl-cyclopentoxy]-3-chloro-benzonitrile] were 72.3 nM and 17.4 nM.
As for `Cc1cc(C#N)nnc1OC1CC(c2ccc(F)cc2)CC1N1CC(N)CC(F)C1` (stereo not drawn) [Example 22, 6-[2-(3-amino-5-fluoro-1-piperidyl)-4-(4-fluorophenyl)cyclopentoxy]-5-methyl-pyridazine-3-carbonitrile], the IC50 stood at 118 nM in experiment [1] and 28.8 nM in experiment [2].
For the molecule `NC1CCCN(C2CC(c3ccc(F)cc3)CC2Oc2nnccc2Cl)C1` (stereo not drawn) [Example 23, 1-[2-(4-chloropyridazin-3-yl)oxy-4-(4-fluorophenyl)cyclopentyl]piperidin-3-amine], the results for the IC50 in experiment [1] and in experiment [2] were 11.3 nM and 6.56 nM, respectively.
